Reference: patent CN115252762A, “一种高分子化合物的生长因子结合用途” (East China University of Science and Technology, priority 2021, dated 2022)

Key:
[1] = molecular target: T1, bone morphogenetic protein-2 (BMP-2) [骨形态发生蛋白-2(BMP-2)] (Homo sapiens, UniProt P12643); assay: Glass surface BMP-2 binding, protein immunofluorescence; conditions: relative to (Lys0.4Nle0.6)30 polymer; grafted on glass
T1 sequence (P12643 283-396): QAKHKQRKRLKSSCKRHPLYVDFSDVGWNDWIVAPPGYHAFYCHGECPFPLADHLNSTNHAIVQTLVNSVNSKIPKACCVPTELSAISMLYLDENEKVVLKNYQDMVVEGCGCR

[2] = tested on: growth factors [生长因子]; assay: Glass surface growth factor binding, peptide versus polymer (overall); conditions: peptide versus (Lys0.4Nle0.6)30 polymer; grafted on glass
[3] = molecular target: T2, fibroblast growth factor-21 (FGF-21) [成纤维细胞生长因子-21(FGF-21)] (Homo sapiens, UniProt Q9NSA1); assay: Glass surface FGF-21 binding, protein immunofluorescence; conditions: relative to (Lys0.4Nle0.6)30 polymer; grafted on glass
T2 sequence (Q9NSA1 29-209): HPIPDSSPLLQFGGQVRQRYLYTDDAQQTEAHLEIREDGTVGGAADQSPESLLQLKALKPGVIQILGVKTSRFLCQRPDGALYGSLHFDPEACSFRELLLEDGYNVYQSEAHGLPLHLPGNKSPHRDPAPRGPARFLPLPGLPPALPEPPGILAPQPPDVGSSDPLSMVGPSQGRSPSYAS

[4] = molecular target: TGF-β (Homo sapiens, UniProt P01137); assay: Glass surface TGF-β binding, peptide versus polymer; conditions: relative to (Lys0.4Nle0.6)30 polymer; grafted on glass
Chain of TGF-β (P01137 279-390 limits assumed): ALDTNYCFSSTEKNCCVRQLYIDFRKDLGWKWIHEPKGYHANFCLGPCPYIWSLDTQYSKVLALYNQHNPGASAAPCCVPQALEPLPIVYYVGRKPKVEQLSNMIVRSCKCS

[5] = molecular target: platelet-derived factor PDGF-AA [血小板衍生因子PDGF-AA] (Homo sapiens, UniProt P04085); assay: Glass surface PDGF-AA binding, peptide versus polymer; conditions: relative to (Lys0.4Nle0.6)30 polymer; grafted on glass

BMP-2 binding amount, multiple of peptide polymer [1]: 1.99 fold | growth factor binding compared with polymer [2]: 优于聚合物 | FGF-21 binding amount, multiple of peptide polymer [3]: 2.55 fold | TGF-β binding amount, multiple of peptide polymer [4]: 1.61 fold | PDGF-AA binding amount, multiple of peptide polymer [5]: 2.06 fold
Substance: (L-Lys)-(L-Nor)-(D-Lys)-(D-Nor)-(L-Nor)-(L-Lys)-(D-Nor)-(D-Lys)-(L-Nor)-(D-Nor)-(L-Lys)-(L-Nor)-(D-Lys)-(D-Nor)-(L-Nor)-(L-Lys)-(D-Nor)-(D-Lys)-(L-Nor)-(D-Nor)-(L-Lys)-(L-Nor)-(D-Lys)-(D-Nor)-(L-Nor)-(L-Lys)-(D-Nor)-(L-Nor)-(L-Cys) [Lys0.4Nle0.6多肽]
